According to patent US20240358705A1, “COMPOSITIONS AND METHODS FOR TREATMENT OF CANCER” (Board of Supervisors of Louisiana State University and …, priority 2021, published 2024):
Entries after “also recorded” stand apart in the source; their conditions may differ. {AltR1} = IDT Alt-R proprietary 5' end modification; {AltR2} = IDT Alt-R proprietary 3' end modification

Experiments:
[1] = system: human polymorphonuclear leukocytes and macrophages; details: cited from earlier work
[2] = phase II study; cited from earlier work
[3] = system: macrophages, fibroblasts, myofibroblasts, and epithelial cells; details: cited from earlier work
[4] = cited from earlier work
[5] = model of diet-induced obesity; cited from earlier work
[6] = system: CD8 OT-I T cells; test: In vivo vaccination antigen titration; set-up: species or system mouse; OT-I proliferation response, lymph node: dose or concentration left out as unconfirmed
Description: C57BL/6N mice were first administered 200 μg cyclophosphamide dissolved in PBS by intraperitoneal injection to induce minor lymphodepletion. 48 hours after lymphodepletion, mice were intravenously adoptively transferred 2×10^6 CFSE labeled CD8 OT-I T cells. Five hours later, mice were vaccinated by 100 μl subcutaneous injection with reducing doses of […] (SEQ ID NO: 1) (Bachem #4033142.0001) in incomplete Freund's adjuvant (IFA) (Thermo #77145). Study ended 96 hours post-vaccination and lymph node tissue was isolated for analysis. Single-cell suspensions of lymph node were stained following the immune profiling by flow cytometry method. Vaccine effectiveness was determined by the percent proliferation of adoptively transferred cells. The sub-optimal vaccine dose was then selected as the amount of antigen that elicited a 50% response.

[7] = system: pmel-I CD8 T cells; test: Cytotoxicity of CRISPR-Cas9 GPR84 knockout pmel-I CD8 T cells; type: cell-based, mouse
Description: CRISPR-Cas9 GPR84 pmel-I T cells were prepared following the CRISPR-Cas9 method. Non-target EL4 cells (CFSE low—0.1 μM) and target EL4gp100 cells (CFSE high—[…]) were prepared. EL4gp100 CFSE high cells were prepared by pulsing EL4 with […] gp100 (Anaspec #AS62589) and incubating for 30 minutes at 37° C., 5% C02. Cells were subsequently washed, pelleted, resuspended at 1×10^6 cells/ml, and mixed at 1:1 ratio. 1×10^5 of the mixed cells were plated into a 96-well round-bottom plate. In technical duplicate or triplicate GPR84 knockout or no target control CD8 […] T cells were added to wells to create an effector to target ratio of 0.5:1, 0.25:1, and 0.12:1 and incubated for 24 hours at 37° C., 5% C02. Cells were then harvested, stained with anti-CD8 to remove the T cell population and the percent specific lysis was captured by flow cytometry.
Isolated pmel-I splenocytes were plated at a density of 2.5×10^6 in 1 ml of cRPMI-1640 containing 300 ng/ml anti-mouse CD3 (Biolegend #100340, clone 145-2C11), 500 IU/ml IL-2, 5 ng/ml IL-7 (PreproTech #217-17), and 100 ng/ml IL-15 (PreproTech #210-15) into a 24-well plate. Cells were incubated at 37° C., 5% CO2 for 48 hours. Cells were then pelleted and suspended to a concentration of 4×10^5 cells/ml in fresh cRPMI-1640 with 500 IU/ml IL-2 and cultured for an additional 24 hours at 37° C., 5% CO2. Before electroporation, T media was prepared consisting of modified cRPMI-1640 (20% FBS, 500 IU/ml IL-2, and no antibiotics). 615 μl of fresh T media was pipetted into 24-well plates. Preparation of CRISPR-Cas9 complexes and electroporation of primary T cells were conducted following the Alt-R CRISPR-Cas9 system using the Neon Transfection System instructions provided by Integrated DNA Technologies (IDT Coralville, IO). The program used for electroporation consisted of 1600V, 10 ms, and three pulses. […] Cells were counted 48 hours after electroporation and cRPMI-1640 supplemented with 500 IU/ml IL-2 was added to adjust the cell density to 4×10^5 cells/ml. […]

CCCCCCCCNc1cc(=O)[nH]c(=O)[nH]1 [6-OAU]
chemotaxis [1]: increase chemotaxis

CCCCCc1cccc(CC(=O)O)c1 [PBI-4050]
HbA1c [2]: can reduce HbAlc
fibrotic capacity of cells [3]: reduced fibrotic capacity
glycemic control [3]: improved glycemic control
forced vital capacity ([4]; combination therapy with pirfenidone): worsened forced vital capacity
inflammatory and fibrotic biomarkers ([4]; patients treated with PBI-4050): significant increase in IL-9, IL-7, MIP-Ibeta; also recorded: increase in IL-9, IL-7, MIP-1beta
tolerability ([4]; single agent and in combination with nintedanib or pirfenidone, phase II): well tolerated
ability to increase forced vital capacity ([4]; single agent and in combination with nintedanib): unsuccessful

CCCCCc1cc(CCCCC)cc(CC(=O)O)c1 [PBI-4547]
metabolic dysregulation (hyperglycemia and hypertriglyceridemia) [5]: improved metabolic dysregulation

SIINFEKL
OT-I proliferation response, predicted ([6]; 0.07 g SIINFEKL, selected sub-optimal vaccine dose): 50%
OT-I proliferation, lymph node ([6]; first five concentrations of SIINFEKL in IFA, 96 hours): ~100%
OT-I proliferation response, lymph node ([6]; in IFA): below 50%

crGPR84: CRISPR-Cas9 guide RNA (SEQ ID NO: 2) used to knock out GPR84 in pmel-I CD8 T cells (guide CUCGAGCACUGGACCAAUACGUUUUAGAGCUAUGCU; RNA, 5' {AltR1}, 3' {AltR2}, backbone not given here)
specific lysis of gp100 pulsed EL4 target cells ([7]; 0.12:1 effector to target ratio, crNTC 38.6%): 52.3%
specific lysis of gp100 pulsed EL4 target cells ([7]; 0.25:1 effector to target ratio, no target control 55.9%): 72.5%
cytotoxicity vs no target control ([7]; 0.5:1 effector to target ratio): did not find a significant difference
